This note sets out measurements from US6699901B1, “Dicarboxylato diammine platinum derivatives and compositions comprising them as anti-tumor agents” (priority 2000, dated 2004).

In data set [1] the test system is nude mice. As to the kind of experiment: Acute toxicity dose limiting experiments (LD50). Here is the method: The LD50 of the pharmaceutical composition of the invention is tested as follows, for example: […]
The test system of data set [2] is human hepatic cancer cells BEL-7402. The experiment in a line: IC50 on human hepatic cancer cells BEL-7402. The format is cell-based.
Data set [3] concerns cells of adenocarcinoma of breast. The experiment in a line: IC50 on human breast cancer cells. The format is cell-based.
Data set [4] in a line: Solubility in water. The data set is classed as physicochemical.
A short description of data set [5]: Stability in water. As to conditions: after dissolved in water. The data set is classed as physicochemical.
Data set [6] in a line: Effectiveness on oral administration. The format is in vivo.
Data set [7] relates to human hepatic cancer H22. Particulars: after two times of administration of the smallest dose based on LD50. On the procedure: The mice were divided into three groups, which were given large dose (LD50×⅕), middle dose (LD50× 1/10) and small dose (LD50× 1/20) respectively. […] Beijing's institute for drug control carried out human hepatic cancer H22 nude mice inoculation carcinostatic rate experiments. […] Every group was given 0.2 ml every time per day for seven consecutive days. The mice were put to death thirty days after inoculation.

Data set [8] is described as follows: Antitumor effects (test not specified).

`N.N.O=C([O-])C1(C(=O)[O-])CCC1.[Pt+2]` [Carboplatin, carboplatin, reference compound] came in with an LD50 abdominal administration in data set [1] (administered abdominally) of 130 mg/kg. Besides, the IC50 turned out to be 8.45 µg/mL in data set [2] and 9.3 µg/mL in data set [3]. In addition, the Solubility in water in data set [4] amounted to 1.5 g/100 ml. Also, the stability in water entry in data set [5] is on record as “lose effectiveness in one day”. For the same molecule, the “effectiveness on oral administration” value in data set [6] was “ineffective”.

Take `O=P1(N(CCCl)CCCl)NCCCO1` (stereo not shown) [cyclophosphamide, reference compound]: in data set [7], the inhibition rate worked out at 73.15% and the “state of the mice” value is listed as “most of the mice were near death”.

As for “Double 1,1-Cyclopropane Dicarboxylic Acid Diaminoplatin Complex”, in data set [1] (injected), the LD50 was determined as 180 mg/kg. Moreover, the “solubility in water compared with bicycloplatin” value in data set [4] is “less soluble in water”. Besides, the “antitumor effects compared with bicycloplatin” value in data set [8] was “superior”.

In the case of `N.N.[Cl][Pt][Cl]` [Cisplatin, cis-dichlorodiaminoplatin], the stability in water entry in data set [5] is reported as “lose effectiveness in one day”. In addition, in data set [6], the “effectiveness on oral administration” value was “ineffective”.

The IC50 is the concentration at which inhibition is half-maximal. For orientation: LD50 means the dose at which mortality reaches 50%.
